Calls of active or inactive are those of the source.
How the values were obtained:
Escherichia coli [1] = assay: microbe, parasite or virus in culture
Escherichia coli [2] = assay: microbe, parasite or virus in culture; remark: listed apart in the source
H9c2 = assay: cells; type: functional, cell-based; details: Rattus norvegicus, H9c2, Myocardium;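 also: confirmatory concentration-response retest of ultra-high-throughput screening hits for modulation of myocardial damage; cell death induced by hydrogen peroxide oxidative stress; compound pretreatment for 60 min then peroxide exposure for 2 h; potency is for protecting the cells against peroxide damage rather than for killing them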
[3] = insulin promoter down-regulators in MIN6 cells, imaging, high-content screening, mouse beta cells (AID 1628); type: functional
[4] = cytotoxicity in MIN6 insulinoma cells, dose response, cytotoxicity control, cell-based, mouse insulinoma (AID 2122); type: functional;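 also: confirmatory high-throughput counterscreen run to flag cytotoxic compounds; mouse MIN-6 beta cells carrying an insulin promoter eGFP reporter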
[5] = Shn3 3'UTR reporter inhibitors, dose response, cell-based, Clone20 osteoblasts, firefly luciferase, cherry-picked (AID 624132); type: functional;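 also: firefly luciferase luminescence from reporter carrying the Shn3 3'UTR in osteoblasts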
[6] = HepG2 cell cytotoxicity, dose response, cytotoxicity control for Shn3 inhibitor project, CellTiter-Glo, cherry-picked (AID 624134); type: functional, cell-based
[7] = control 3'UTR Renilla luciferase suppression, dose response, counter-screen for Shn3 inhibitor project, cell-based, Clone20-Shn3RL, cherry-picked (AID 624133); type: functional
Trypsin = Trypsin (Sus scrofa, UniProt P00761); assay: porcine trypsin inhibitors, dose response, selectivity assay for Rce1 protease inhibitor project, biochemical, quenched peptide fluorescence, cherry-pick (AID 488789)
Sequence of Trypsin (P00761 whole entry): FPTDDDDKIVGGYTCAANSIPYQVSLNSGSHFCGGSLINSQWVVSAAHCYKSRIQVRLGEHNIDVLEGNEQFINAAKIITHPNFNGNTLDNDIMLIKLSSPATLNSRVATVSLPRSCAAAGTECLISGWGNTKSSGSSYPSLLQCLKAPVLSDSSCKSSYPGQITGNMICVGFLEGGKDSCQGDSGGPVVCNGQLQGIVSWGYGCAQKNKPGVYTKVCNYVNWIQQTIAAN

CAAX prenyl protease 2 [8] = molecular target: T1, CAAX prenyl protease 2 (Saccharomyces cerevisiae S288c, UniProt Q03530); type: biochemical
T1 sequence (Q03530 whole entry): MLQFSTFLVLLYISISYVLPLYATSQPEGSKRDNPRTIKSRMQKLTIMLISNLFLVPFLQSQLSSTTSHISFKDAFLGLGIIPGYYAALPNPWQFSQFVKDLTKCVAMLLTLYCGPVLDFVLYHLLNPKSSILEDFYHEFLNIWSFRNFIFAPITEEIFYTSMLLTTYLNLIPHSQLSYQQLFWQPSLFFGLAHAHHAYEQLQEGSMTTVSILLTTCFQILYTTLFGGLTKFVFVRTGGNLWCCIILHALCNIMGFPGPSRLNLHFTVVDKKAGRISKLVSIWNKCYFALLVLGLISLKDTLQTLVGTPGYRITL

CAAX prenyl protease 2 [9] = molecular target: CAAX prenyl protease 2 (Homo sapiens, UniProt Q9Y256); assay: human Rce1 protease inhibitors, dose response, biochemical, yeast membranes, quenched-peptide fluorescence, cherry-pick (AID 588849)
Sequence of CAAX prenyl protease 2 (Homo sapiens, UniProt Q9Y256) (Q9Y256 whole entry): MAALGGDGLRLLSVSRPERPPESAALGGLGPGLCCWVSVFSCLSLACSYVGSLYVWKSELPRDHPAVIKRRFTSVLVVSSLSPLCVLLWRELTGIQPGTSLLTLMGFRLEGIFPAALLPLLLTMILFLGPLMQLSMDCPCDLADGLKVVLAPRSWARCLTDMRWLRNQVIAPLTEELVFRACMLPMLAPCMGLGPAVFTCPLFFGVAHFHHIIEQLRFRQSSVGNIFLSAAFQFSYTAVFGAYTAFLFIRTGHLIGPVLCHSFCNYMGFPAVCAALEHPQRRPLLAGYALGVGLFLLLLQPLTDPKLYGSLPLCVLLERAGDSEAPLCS

HEK293 [10] = assay: NOD1 signaling inhibitors, primary screen, cell-based, luminescence, uHTS (AID 1578); type: functional; details: Homo sapiens
HEK293 [11] = assay: cells; type: functional, cell-based; details: Homo sapiens
HEK293 [12] = assay: cells; type: functional, cell-based; details: Homo sapiens; remark: listed apart in the source
[13] = molecular target: Nucleotide-binding oligomerization domain-containing protein 2 (Homo sapiens, UniProt Q9HC29); assay: NOD2 signaling inhibitors, cell-based, luminescence, uHTS, HEK293 (AID 1566); type: functional
Sequence of Nucleotide-binding oligomerization domain-containing protein 2 (Q9HC29 whole entry, the tested form may be a part): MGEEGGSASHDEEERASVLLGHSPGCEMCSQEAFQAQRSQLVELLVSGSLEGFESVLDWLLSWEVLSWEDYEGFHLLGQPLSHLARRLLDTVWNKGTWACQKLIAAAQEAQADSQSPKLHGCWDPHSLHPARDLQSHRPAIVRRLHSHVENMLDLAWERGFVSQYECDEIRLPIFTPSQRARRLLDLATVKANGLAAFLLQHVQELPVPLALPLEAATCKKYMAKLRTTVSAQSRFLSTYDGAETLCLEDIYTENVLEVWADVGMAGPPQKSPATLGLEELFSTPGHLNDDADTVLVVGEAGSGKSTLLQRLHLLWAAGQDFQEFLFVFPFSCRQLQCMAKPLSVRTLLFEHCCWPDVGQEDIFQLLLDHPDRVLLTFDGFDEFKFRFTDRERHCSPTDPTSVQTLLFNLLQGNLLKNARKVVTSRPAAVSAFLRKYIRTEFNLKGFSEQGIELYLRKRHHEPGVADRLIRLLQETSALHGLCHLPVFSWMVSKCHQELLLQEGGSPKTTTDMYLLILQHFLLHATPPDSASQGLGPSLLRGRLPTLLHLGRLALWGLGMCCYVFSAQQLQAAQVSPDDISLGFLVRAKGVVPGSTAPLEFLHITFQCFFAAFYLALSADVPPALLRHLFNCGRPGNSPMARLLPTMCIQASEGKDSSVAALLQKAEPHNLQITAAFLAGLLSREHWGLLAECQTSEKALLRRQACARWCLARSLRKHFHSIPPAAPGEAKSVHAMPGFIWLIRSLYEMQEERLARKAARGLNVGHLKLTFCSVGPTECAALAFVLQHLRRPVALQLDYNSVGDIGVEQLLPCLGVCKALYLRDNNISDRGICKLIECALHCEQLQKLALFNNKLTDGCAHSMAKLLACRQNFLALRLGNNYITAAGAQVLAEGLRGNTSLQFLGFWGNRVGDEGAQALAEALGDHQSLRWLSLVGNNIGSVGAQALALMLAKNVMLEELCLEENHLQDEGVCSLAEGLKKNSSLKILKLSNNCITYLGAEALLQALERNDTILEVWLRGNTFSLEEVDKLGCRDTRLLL

HEK293 [14] = assay: NOD2 signaling inhibitors in MDP-stimulated cells, cell-based, uHTS, luminescence (AID 2001); type: functional; details: Homo sapiens
HEK293 [15] = assay: cells; type: functional, cell-based; details: Homo sapiens; remark: listed apart in the source
Tumor necrosis factor = Tumor necrosis factor (Homo sapiens, UniProt P01375); assay: TNFa-triggered NF-kB activation inhibitors, SAR follow-up, cell-based, revised (AID 2337); type: functional
Sequence of Tumor necrosis factor (P01375 whole entry, the tested form may be a part): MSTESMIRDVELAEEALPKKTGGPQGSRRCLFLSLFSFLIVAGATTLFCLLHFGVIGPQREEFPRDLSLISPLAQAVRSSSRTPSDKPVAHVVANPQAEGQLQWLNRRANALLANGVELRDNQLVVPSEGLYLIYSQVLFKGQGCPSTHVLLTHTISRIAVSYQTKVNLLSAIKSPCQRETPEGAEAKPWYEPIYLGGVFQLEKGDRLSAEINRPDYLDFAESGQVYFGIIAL

[16] = molecular target: Nucleotide-binding oligomerization domain-containing protein 1 (Homo sapiens, UniProt Q9Y239); assay: NOD1 signaling inhibitors, SAR follow-up, revised (AID 2333); type: functional
Sequence of Nucleotide-binding oligomerization domain-containing protein 1 (Q9Y239 whole entry, the tested form may be a part): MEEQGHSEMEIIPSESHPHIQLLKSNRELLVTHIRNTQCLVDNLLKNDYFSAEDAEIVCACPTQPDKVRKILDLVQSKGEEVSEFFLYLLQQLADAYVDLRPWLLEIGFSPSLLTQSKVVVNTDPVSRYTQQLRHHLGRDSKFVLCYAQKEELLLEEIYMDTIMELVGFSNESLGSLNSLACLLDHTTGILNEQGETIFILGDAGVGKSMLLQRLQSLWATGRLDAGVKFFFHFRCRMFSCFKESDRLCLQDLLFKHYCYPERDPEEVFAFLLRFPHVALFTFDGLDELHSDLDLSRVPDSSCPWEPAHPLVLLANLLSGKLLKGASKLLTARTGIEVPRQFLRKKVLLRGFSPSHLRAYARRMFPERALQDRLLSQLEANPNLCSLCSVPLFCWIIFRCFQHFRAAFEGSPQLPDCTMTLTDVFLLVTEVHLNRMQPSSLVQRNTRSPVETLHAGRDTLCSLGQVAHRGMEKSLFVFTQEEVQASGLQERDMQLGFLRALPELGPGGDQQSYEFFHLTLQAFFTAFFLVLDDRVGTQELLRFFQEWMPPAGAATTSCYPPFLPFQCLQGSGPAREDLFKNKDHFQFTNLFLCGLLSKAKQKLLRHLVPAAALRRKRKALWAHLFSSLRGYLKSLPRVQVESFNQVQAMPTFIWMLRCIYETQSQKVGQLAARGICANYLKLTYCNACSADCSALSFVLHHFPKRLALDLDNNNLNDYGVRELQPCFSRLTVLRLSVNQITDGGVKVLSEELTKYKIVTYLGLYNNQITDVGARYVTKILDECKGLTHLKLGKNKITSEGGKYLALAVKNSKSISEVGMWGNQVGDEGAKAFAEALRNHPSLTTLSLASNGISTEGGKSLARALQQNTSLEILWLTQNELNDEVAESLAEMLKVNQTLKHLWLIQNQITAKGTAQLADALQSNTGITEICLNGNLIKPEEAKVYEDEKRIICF

HEK293 [17] = assay: cells; details: Homo sapiens

In the case of CC(C)(C)NC(=O)c1nn(Cc2ccccc2)c(=O)c2ccccc12, the AC50 (Escherichia coli [1]) is reported as 29.1 µM (active) and the AC50 (Escherichia coli [2]) is reported as 53.2 µM (active).
For COc1cccc(-c2nn3c(-c4ccccn4)nnc3s2)c1, the IC50 (H9c2) was 16.5 µM (active) and the AC50 (Escherichia coli [2]) was 192 µM (active).
With Cc1cc2nc(C)n(CCCNC(=O)Nc3cccc4ccccc34)c2cc1C the IC50 [3] was 1.7 µM (active), the IC50 [4] was 1.99 µM (active) and the AC50 [5] was 3.19 µM (active). The AC50 [6] was 28.5 µM (active) and the AC50 [7] was 6.38 µM (active).
For CN1c2ccccc2-c2nc3ccccc3n2C1c1cccs1 (stereo unspecified), the AC50 (Trypsin) was 0.989 µM (active), the AC50 (CAAX prenyl protease 2 [8]) was 4.28 µM (active) and the AC50 (CAAX prenyl protease 2 [9]) was 0.769 µM (active).
In the case of Cc1onc(-c2ccccc2)c1C(=O)Nc1ncc([N+](=O)[O-])s1, the EC50 (HEK293 [10]) is reported as 2.25 µM (active), the IC50 (HEK293 [11]) is reported as 15.8 µM (active) and the IC50 (HEK293 [12]) is reported as > 20 µM (inactive). The EC50 [13] was 2.62 µM (active), the IC50 (HEK293 [14]) was 8.73 µM (active) and the IC50 (HEK293 [15]) was > 20 µM (inactive). For the same molecule, the IC50 (Tumor necrosis factor) was 6.31 µM (active), the IC50 [16] was 4.88 µM (active) and the IC50 (HEK293 [17]) was 18 µM (active).

Reference: ChEMBL document CHEMBL1201862, “PubChem BioAssay data set” (2004)
